In US7855232B2, “Organoselenium compound for cancer chemoprevention” (LKT Laboratories, Inc., priority 2001, dated 2010):
Marks after values point to notes of the source that are not given here.

Key:
Type in all cases: in vivo, Female A/J mice
[1] = tested on: Glutathione S-Transferase; assay: Glutathione S-transferase (GST) activity in tissue cytosol of treated mice, CDNB substrate; settings: for Ratio Test/con (GST): gavage; for GST act.: gavage in corn oil
Experimental: The activity of cytosolic was assayed according to the method of Habig et al. using 1-chloro-2,4-dinitrobenzene (CDNB) as the substrate. Habig et al, J. Biol. Chem. 249:7130-7139 (1974). The complete solution contains, in a total volume of 2.0 mL, 0.1 M phosphate buffer, pH 6.5, 5 mM glutathione, 1 mM CDNB, and 20 μL of the cytosol. The reaction was monitored at 340 nm in a Beckman Model DU65 UV-VIS spectrophotometer. Assays were performed at 30° C. Complete assay mixture without the cytosolic enzyme was used as the reference blank. Data as analyzed by the Student's “t” test and P values were obtained in comparison to the control.

GSH = assay: Glutathione (GSH) concentration in tissues of treated mice, HPLC; settings: for Ratio Test/con (GSH): gavage; for GSH conc.: gavage in corn oil
Experimental: GSH was quantitated by modification of the procedure Siller-Cepeda et al. Plant Cell Physiol. 32:1179-1185 (1991). Aliquots of tissue homogenates were mixed with equal volumes of 20% PCA containing 2 mM BPDS. Vortex, centrifuge at 7800×g for 15 minutes at 4° C. and 250 μl supernatant transferred into a microfuge tube containing 25 μl of γ-glu-glu as internal standard. The samples were carboxymethylated with 25 μl of 100 mM iodoacetic acid dissolved in 0.2 mM m-cresol purple sodium salt solution. The pH of the solution was adjusted to 9-10 by adding 350 μl of KOH (2M)-KHCO3 (2.4 M) mixture and incubated in the dark for 15 minutes. After carboxymethylation, the samples were derivatized with 500 μl of 1% dinitrofluorobenzene (DNFB) and kept in the dark at 4° C. overnight. The samples were centrifuged at 13,000×g for 15 minutes, filtered through 0.2 μm filter, and were analyzed with a SHIMADZU two-pump gradient HPLC system. Samples were injected by a SHIMADZU SIL-10AV Autoinjector onto a Varian 3-aminopropyl MICROSORB-MV column (4.6×250 mm) operated at ambient temperature with a flow rate of 1 ml/min. Absorbance of the dinitrophenyl derivatives was monitored at 365 nm. The amount of GSH was calculated from a standard curve using γ-glu-glu as internal standard.

[2] = tested on: UDP-Glucuronosyltransferase (UDP-GT); assay: UDP-glucuronosyltransferase (UDP-GT) activity in liver microsomes of treated mice, o-aminophenol substrate; settings: for Ratio Test/con (UDP-GT): gavage; for UDP-GT activity (column head prints GSH conc.): gavage in corn oil
Experimental: Microsomal samples were assayed for enzymatic conjugation by modifying the procedure of Zakim et al., Methods of Biochemical Analysis, ed. David Glick, 21:1-37, (1973). using o-aminophenol as the substrate. The complete assay solution contains, in a total volume of 500 μl, 0.25 M phosphate buffer (pH 7.6), 0.002 M o-aminophenol, 0.05 M UDPGA, 0.125 M magnesium chloride and 100 μl microsomes. The mixture was incubated for 30 minutes. Reactions were stopped by the addition of 500 μl of TCA-sodium phosphate reagent. The precipitated protein was removed, 100 μl of 0.05% sodium nitrite was added to 950 μl of the supernatent solution and allowed to stand for 5 minutes. 100 μl of 0.5% ammonium sulfamate was added, after 5 minutes. 100 μl of 0.12% N-(-1-naphthyl)ethylenediamine dihydrochloride was added and incubated for 2 hours in the dark; and the difference in the optical density between the blanks and the samples were recorded at 555 nm in a Beckman model DU65 UV-VIS spectrophotometer. The UDP-GT activity was calculated using the extinction coefficient 29 mM-1 cm-1 for the coupled product.

[3] = colon, dose 0.02 mmol/Kg body weight
[4] = colon, dose 0.04 mmol/Kg body weight
[5] = forestomach, dose 0.02 mmol/Kg body weight
[6] = forestomach, dose 0.04 mmol/Kg body weight
[7] = liver, dose 0.02 mmol/Kg body weight
[8] = liver, dose 0.04 mmol/Kg body weight
[9] = lung, dose 0.02 mmol/Kg body weight
[10] = lung, dose 0.04 mmol/Kg body weight
[11] = small intestinal mucosa, dose 0.02 mmol/Kg body weight
[12] = small intestinal mucosa, dose 0.04 mmol/Kg body weight

## N#C[Se]Cc1ccc[se]1 [(3) SMSC, 2-selenophenyl methylene selenocynate]
[1]; [3]
  Ratio Test/con (GST): 1.08
  GST act.: 0.70 ± 0.05 μmol/min mg protein
[1]; [4]
  Ratio Test/con (GST): 1.06
  GST act.: 0.69 ± 0.09 μmol/min mg protein
[1]; [5]
  Ratio Test/con (GST): 0.8
  GST act.: 0.89 ± 0.22 μmol/min mg protein
[1]; [6]
  Ratio Test/con (GST): 1.01
  GST act.: 1.12 ± 0.19 μmol/min mg protein
[1]; [7]
  Ratio Test/con (GST): 0.81
  GST act.: 1.04 ± 0.18 ^g μmol/min mg protein
[1]; [8]
  Ratio Test/con (GST): 1.58
  GST act.: 2.02 ± 0.33 ^e μmol/min mg protein
[1]; [9]
  Ratio Test/con (GST): 1.18
  GST act.: 0.40 ± 0.03 ^f μmol/min mg protein
[1]; [10]
  Ratio Test/con (GST): 1.00
  GST act.: 0.34 ± 0.06 μmol/min mg protein
[1]; [11]
  Ratio Test/con (GST): 0.86
  GST act.: 0.19 ± 0.5 μmol/min mg protein
[1]; [12]
  Ratio Test/con (GST): 0.91
  GST act.: 0.20 ± 0.02 μmol/min mg protein
GSH; [7]
  Ratio Test/con (GSH): 0.98
  GSH conc.: 3.49 ± 0.90 μmol/gm tissue weight
GSH; [8]
  Ratio Test/con (GSH): 1.38
  GSH conc.: 4.89 ± 0.57^c μmol/gm tissue weight
GSH; [11]
  Ratio Test/con (GSH): 0.89
  GSH conc.: 1.88 ± 0.4 μmol/gm tissue weight
GSH; [12]
  Ratio Test/con (GSH): 1.00
[2]; dose 0.02 mmol/Kg body weight
  Ratio Test/con (UDP-GT): 1.52
  UDP-GT activity (column head prints GSH conc.): 6.15 ± 1.20 ^d nmol/min/mg protein
[2]; dose 0.04 mmol/Kg body weight
  Ratio Test/con (UDP-GT): 2.36
  UDP-GT activity (column head prints GSH conc.): 9.56 ± 4.23 ^d nmol/min/mg protein

## N#C[Se]Cc1ccc(C[Se]C#N)[se]1 [(4) SDMSC, selenophenyl-2,5-di-methylene selenocyanate]
[1]; [3]
  Ratio Test/con (GST): 1.13
  GST act.: 0.45 ± 0.02 ^g μmol/min mg protein
[1]; [4]
  Ratio Test/con (GST): 1.10
  GST act.: 0.44 ± 0.04 μmol/min mg protein
[1]; [5]
  Ratio Test/con (GST): 1.35
  GST act.: 1.05 ± 0.28 μmol/min mg protein
[1]; [6]
  Ratio Test/con (GST): 1.21
  GST act.: 0.94 ± 0.18 μmol/min mg protein
[1]; [7]
  Ratio Test/con (GST): 1.06
  GST act.: 1.20 ± 0.11 ^g μmol/min mg protein
[1]; [8]
  Ratio Test/con (GST): 1.50
  GST act.: 1.69 ± 0.18 ^e μmol/min mg protein
[1]; [9]
  Ratio Test/con (GST): 1.23
  GST act.: 0.58 ± 0.08 μmol/min mg protein
[1]; [10]
  Ratio Test/con (GST): 1.17
  GST act.: 0.55 ± 0.07 μmol/min mg protein
[1]; [11]
  Ratio Test/con (GST): 1.00
  GST act.: 0.34 ± 0.01 μmol/min mg protein
[1]; [12]
  Ratio Test/con (GST): 1.06
  GST act.: 0.36 ± 0.02 μmol/min mg protein
GSH; [7]
  Ratio Test/con (GSH): 0.93
  GSH conc.: 3.58 ± 1.86 μmol/gm tissue weight
GSH; [8]
  Ratio Test/con (GSH): 1.39
  GSH conc.: 5.34 ± 1.36 μmol/gm tissue weight
[2]; dose 0.02 mmol/Kg body weight
  Ratio Test/con (UDP-GT): 2.30
  UDP-GT activity (column head prints GSH conc.): 10.17 ± 2.37 ^c nmol/min/mg protein
[2]; dose 0.02 mmol/Kg body weight, listed as SDMSC 4
  Ratio Test/con (UDP-GT): 2.67
[2]; dose 0.04 mmol/Kg body weight
  Ratio Test/con (UDP-GT): 2.43
  UDP-GT activity (column head prints GSH conc.): 10.75 ± 2.04 ^d nmol/min/mg protein

## [Se]=C=NCc1ccc(CN=C=[Se])[se]1 [(7) SDMISC, selenophenyl-2,5-di-methylene isoselenocyanate]
[1]; colon
  dose response of GST induction (in words): dose response induction
[1]; [3]
  Ratio Test/con (GST): 1.23
  GST act.: 0.80 ± 0.03 ^c μmol/min mg protein
[1]; [4]
  Ratio Test/con (GST): 1.34
  GST act.: 0.87 ± 0.03 ^e μmol/min mg protein
[1]; [5]
  Ratio Test/con (GST): 1.10
  GST act.: 1.22 ± 0.21 μmol/min mg protein
[1]; [6]
  Ratio Test/con (GST): 1.14
  GST act.: 1.27 ± 0.28 μmol/min mg protein
[1]; [7]
  Ratio Test/con (GST): 2.39
  GST act.: 3.06 ± 0.41 ^e μmol/min mg protein
[1]; [8]
  Ratio Test/con (GST): 2.34
  GST act.: 3.00 ± 0.13 ^c μmol/min mg protein
[1]; [9]
  Ratio Test/con (GST): 1.31
  GST act.: 0.45 ± 0.04 ^f μmol/min mg protein
[1]; [10]
  Ratio Test/con (GST): 1.16
  GST act.: 0.40 ± 0.04 μmol/min mg protein
[1]; [11]
  Ratio Test/con (GST): 2.26
  GST act.: 0.50 ± 0.14 ^e μmol/min mg protein
[1]; [12]
  Ratio Test/con (GST): 2.82
  GST act.: 0.62 ± 0.04 ^c μmol/min mg protein
[1]; small intestinal mucosa, dose 0.04 mmol/Kg body weight, listed as SDMISC 7
  Ratio Test/con (GST): 2.83
GSH; [7]
  Ratio Test/con (GSH): 1.30
  GSH conc.: 4.63 ± 1.30 μmol/gm tissue weight
GSH; [8]
  Ratio Test/con (GSH): 1.20
  GSH conc.: 4.25 ± 1.02 μmol/gm tissue weight
GSH; [11]
  Ratio Test/con (GSH): 1.36
  GSH conc.: 2.86 ± 0.14^c μmol/gm tissue weight
GSH; [12]
  Ratio Test/con (GSH): 1.90
  GSH conc.: 4.00 ± 0.35^d μmol/gm tissue weight
[2]; dose 0.02 mmol/Kg body weight
  Ratio Test/con (UDP-GT): 2.56
  UDP-GT activity (column head prints GSH conc.): 10.37 ± 1.99 ^d nmol/min/mg protein
[2]; dose 0.04 mmol/Kg body weight
  Ratio Test/con (UDP-GT): 1.60
  UDP-GT activity (column head prints GSH conc.): 6.46 ± 1.95 nmol/min/mg protein

## N#C[Se]Cc1ccc(C[Se]C#N)cc1 [p-XSC, 1,4-phenylenebis(methylene)selenocyanate, reference compound]
[1]; [3]
  Ratio Test/con (GST): 1.10
  GST act.: 0.72 ± 0.07 μmol/min mg protein
[1]; [5]
  Ratio Test/con (GST): 0.88
  GST act.: 0.98 ± 0.27 μmol/min mg protein
[1]; [7]
  Ratio Test/con (GST): 1.28
  GST act.: 1.64 ± 0.45 μmol/min mg protein
[1]; [9]
  Ratio Test/con (GST): 1.41
  GST act.: 0.48 ± 0.13 μmol/min mg protein
[1]; [11]
  Ratio Test/con (GST): 0.95
  GST act.: 0.21 ± 0.06 μmol/min mg protein
[1]; tissues of A/J mice
  induction of GST activity (in words): failed to induce a significant increase
GSH; [8]
  Ratio Test/con (GSH): 0.99
  GSH conc.: 3.50 ± 0.75 μmol/gm tissue weight
GSH; [12]
  Ratio Test/con (GSH): 0.91
  GSH conc.: 1.93 ± 0.54 μmol/gm tissue weight
GSH; tissues of A/J mice
  increase of GSH concentration (in words): failed to induce a significant increase
[2]; dose 0.04 mmol/Kg body weight
  Ratio Test/con (UDP-GT): 1.88
  UDP-GT activity (column head prints GSH conc.): 7.60 ± 2.47 ^d nmol/min/mg protein
